Experimental data as given in US20250066328A1, “PARP7 INHIBITORS” (Gilead Sciences, Inc., priority 2023, published 2025).

test system: STAT1 (phosphorylated at Tyr701) in NCI-H1373 cells; assay: Phospho-STAT1 (Tyr701) LANCE Ultra TR-FRET detection assay in NCI-H1373 cells; format: cell-based; conditions: Homo sapiens, NCI-H1373, 48 h, 48 hours incubation, induction of pSTAT1, normalized to 10 uM positive control and DMSO, 4-parameter fit, read-out: NH1373 pSTAT1 EC50
Method in brief: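 NCI-H1373 cells (30,000/well) incubated 48 h at 37° C on compound, then lysed; phospho-STAT1 Tyr701 measured by sandwich TR-FRET (665/620 nm ratio). Data normalized to DMSO and a 10 uM reference inducer; EC50 from 4-parameter fit.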

| Compound | EC50 [nM] |
| --- | --- |
| [2H]C([2H])([2H])Oc1cnc(-c2cc3ccn(C[C@H](F)C[C@H](C)Nc4cn[nH]c(=O)c4C(F)(F)F)c(=O)c3cc2F)nc1 [Example 27] | 1.05 |
| CC(C[C@H](C)Nc1cn[nH]c(=O)c1C(F)(F)F)Cn1ccc2cc(-c3ncc(C(F)(F)F)cn3)c(F)cc2c1=O (stereo partly drawn) [Example 116, 7-fluoro-2-((4S)-2-methyl-4-((6-oxo-5-(trifluoromethyl)-1,6-dihydropyridazin-4-yl)amino)pentyl)-6-(5-(trifluoromethyl)pyrimidin-2-yl)isoquinolin-1(2H)-one] | 89.9 |
| C[C@@H](C[C@@H](F)Cn1ccc2cc(-c3cc4c(cn3)C(F)(F)CC4)c(F)cc2c1=O)Nc1cn[nH]c(=O)c1C(F)(F)F [Example 91] | 1.69 |
| C[C@@H](C[C@@H](F)Cn1ccc2cc(-c3cnccn3)c(F)cc2c1=O)Nc1cn[nH]c(=O)c1C(F)(F)F [Example 104] | 36.4 |
| C[C@@H](C[C@@H](F)Cn1ccc2cc(-c3ncc([C@@H](O)C(F)F)cn3)c(F)cc2c1=O)Nc1cn[nH]c(=O)c1C(F)(F)F [Example 80] | 7.89 |
| Nc1nc(-c2cc3ccn(CC(F)CC(COC(F)F)Nc4cn[nH]c(=O)c4C(F)(F)F)c(=O)c3cc2F)ncc1C(F)F (stereo not drawn) [Example 127] | 6.55 |
